Reference: US7470686B2, “Method of inhibiting the expression and/or the activity of JNK” (Laboratoires Serono SA, priority 1999, dated 2008)
pIC50: −log10 of the molar value. Structures can show the parent of a compound that is named as a salt.

Key:
ERK2 = ERK2 (Homo sapiens, UniProt P28482); test: ERK2 enzyme assay (SPA, myelin basic protein substrate); type: biochemical
Experimental: (§1) JNK2 and 3 enzyme assay: […] The incubation is performed for 120 min. at R.T and stopped upon addition of 200 μl of a solution containing 250 μg of Streptavidine-coated SPA beads (Amersham, Inc.)*, 5 mM EDTA, 0.1% Triton X-100 and 50 μM ATP, in phosphate saline buffer. After incubation for 60 minutes at RT, beads are sedimented by centrifugation at 1500×g for 5 minutes, resuspended in 200 μl of PBS containing 5 mM EDTA, 0.1% Triton X-100 and 50 μM ATP and the radioactivity measured in a scintillation β counter, following sedimentation of the beads as described above. By substituting GST-c Jun for biotinylated GST-1ATF2 or myelin basic protein, this assay can be used to measure inhibition of preactivated p38 and ERK MAP Kinases, respectively.

preactivated p38 = preactivated p38 (Homo sapiens, UniProt Q16539); test: p38 enzyme assay (SPA, GST-ATF2 substrate); type: biochemical
Experimental: The incubation is performed for 120 min. at R.T and stopped upon addition of 200 μl of a solution containing 250 μg of Streptavidine-coated SPA beads (Amersham, Inc.)*, 5 mM EDTA, 0.1% Triton X-100 and 50 μM ATP, in phosphate saline buffer. After incubation for 60 minutes at RT, beads are sedimented by centrifugation at 1500×g for 5 minutes, resuspended in 200 μl of PBS containing 5 mM EDTA, 0.1% Triton X-100 and 50 μM ATP and the radioactivity measured in a scintillation β counter, following sedimentation of the beads as described above. By substituting GST-c Jun for biotinylated GST-1ATF2 or myelin basic protein, this assay can be used to measure inhibition of preactivated p38 and ERK MAP Kinases, respectively.

[1] = molecular target: recombinant, pre-activated GST-JNK3 (Homo sapiens, UniProt P53779); test: JNK3 enzyme assay (SPA, GST-c-Jun phosphorylation); type: biochemical; conditions: 2 μM ATP, 120 min at R.T
Experimental: as §1

[2] = molecular target: recombinant, pre-activated GST-JNK2 (Homo sapiens, UniProt P45984); test: JNK2 enzyme assay (SPA, GST-c-Jun phosphorylation); type: biochemical; conditions: 2 μM ATP, 120 min at R.T
Experimental: as §1

[3] = system: JNK (Hlr c-Jun HeLa cells); test: C-Jun reporter assay; type: cell-based; conditions: Homo sapiens, MEKK1-transfected Hlr c-Jun HeLa cells, luciferase reporter
Experimental: Hlr c-Jun HeLa cells are cultured in DMEM High Glc supplemented with 10% FCS (Sigma), 2 mM Glutamine (Gibco), P/S, Hygromycin b 100 µg/mL and G418 250 μg/mL
The cells from flasks of near-confluent cultures are detached and disaggregated by treatment with trypsin as described above. The cells are resuspended in culture medium and counted. The cell suspension are diluted with medium to give about 3.5×10^6 cells/mL and […] of cell suspension are put onto 2 10 cm culture dishes containing 9 mL of culture medium. The plates are incubated at 37° C. in a humidified atmosphere of 5% CO2 in air
• Control 0.2 μg pTK Renilla, 5.8 μg pBluescript KS, 500 μl OPTIMEM (GIBCO), 18 μl Fugene 6 • Induced 0.1 μg pMEKK1, 0.2 μg pTK Renilla, 5.7 μg pBluescript KS, 500 μl OPTIMEM (GIBCO), 18 μl Fugene 6 30′ RT
The transfection mixture is added to the plated cells. The plates are incubated over night at 37° C. in a humidified atmosphere of 5% CO2 in air
A 96 wells plate containing 100 μl of culture medium per well is prepared
Compound: 2 μl of Hit compound stock dilution are added to the 100 μl (in triplicate). The transfected cells are trypsinised and re-suspend in 12 mL of culture medium. 100 μl of the dilution are added to each of the 96 wells plate. The plate is incubated over night at 37° C. in a humidified atmosphere of 5% CO2 in air
The medium is removed from the plate and the cells washed two times with 100 μl PBS Completely remove the rinse solution before applying PLB reagent. Dispense into each culture well […] of 1×PLB. Place the culture plates on a rocking platform or orbital shaker with gentle rocking/shaking to ensure complete and even coverage of the cell monolayer with 1×PLB. Rock the culture plates at room temperature for 15 minutes. Transfer 20 μl of the lysate into a white opaque 96 wells plate. Read in a luminometer. • Inject 50 μl of Luciferase Assay Reagent II wait 5″, read 10″ • Inject 50 μl of Stop & Glo® Reagent wait 5″, read 10″ Check RLU Luciferase/RLU Renilla*1000

Chain of ERK2 (P28482 whole entry, species assumed): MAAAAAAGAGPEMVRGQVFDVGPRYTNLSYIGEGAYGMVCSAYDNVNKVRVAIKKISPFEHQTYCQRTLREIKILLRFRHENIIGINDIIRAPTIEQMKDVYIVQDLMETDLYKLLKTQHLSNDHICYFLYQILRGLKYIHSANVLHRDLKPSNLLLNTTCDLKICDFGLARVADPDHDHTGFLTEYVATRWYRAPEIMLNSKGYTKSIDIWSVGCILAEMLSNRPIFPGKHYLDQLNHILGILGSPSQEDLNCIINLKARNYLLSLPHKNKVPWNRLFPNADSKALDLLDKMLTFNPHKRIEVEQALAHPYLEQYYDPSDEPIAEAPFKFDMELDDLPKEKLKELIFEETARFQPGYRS
Chain of preactivated p38 (Q16539 whole entry): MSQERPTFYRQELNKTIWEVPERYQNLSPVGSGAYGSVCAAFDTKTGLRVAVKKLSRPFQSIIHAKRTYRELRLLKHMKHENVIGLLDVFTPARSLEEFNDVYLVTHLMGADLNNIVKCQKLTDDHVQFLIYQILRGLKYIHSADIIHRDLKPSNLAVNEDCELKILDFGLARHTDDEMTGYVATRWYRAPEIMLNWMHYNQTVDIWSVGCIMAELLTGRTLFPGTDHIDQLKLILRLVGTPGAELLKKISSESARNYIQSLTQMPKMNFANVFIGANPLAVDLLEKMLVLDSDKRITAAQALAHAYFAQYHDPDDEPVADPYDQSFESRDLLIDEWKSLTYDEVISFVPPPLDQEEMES
Chain of recombinant, pre-activated GST-JNK2 (P45984 whole entry): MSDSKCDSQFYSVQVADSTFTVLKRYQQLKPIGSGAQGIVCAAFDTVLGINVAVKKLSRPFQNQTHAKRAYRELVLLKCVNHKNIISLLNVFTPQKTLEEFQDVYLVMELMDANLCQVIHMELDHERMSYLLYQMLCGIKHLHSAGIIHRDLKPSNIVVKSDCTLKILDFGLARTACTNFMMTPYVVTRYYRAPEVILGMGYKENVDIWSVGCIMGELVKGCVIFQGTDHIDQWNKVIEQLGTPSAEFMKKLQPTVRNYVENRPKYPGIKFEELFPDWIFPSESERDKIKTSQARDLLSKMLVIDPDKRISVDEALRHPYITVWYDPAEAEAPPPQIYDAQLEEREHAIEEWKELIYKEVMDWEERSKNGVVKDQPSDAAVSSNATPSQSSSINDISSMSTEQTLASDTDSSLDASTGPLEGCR
Chain of recombinant, pre-activated GST-JNK3 (P53779 whole entry): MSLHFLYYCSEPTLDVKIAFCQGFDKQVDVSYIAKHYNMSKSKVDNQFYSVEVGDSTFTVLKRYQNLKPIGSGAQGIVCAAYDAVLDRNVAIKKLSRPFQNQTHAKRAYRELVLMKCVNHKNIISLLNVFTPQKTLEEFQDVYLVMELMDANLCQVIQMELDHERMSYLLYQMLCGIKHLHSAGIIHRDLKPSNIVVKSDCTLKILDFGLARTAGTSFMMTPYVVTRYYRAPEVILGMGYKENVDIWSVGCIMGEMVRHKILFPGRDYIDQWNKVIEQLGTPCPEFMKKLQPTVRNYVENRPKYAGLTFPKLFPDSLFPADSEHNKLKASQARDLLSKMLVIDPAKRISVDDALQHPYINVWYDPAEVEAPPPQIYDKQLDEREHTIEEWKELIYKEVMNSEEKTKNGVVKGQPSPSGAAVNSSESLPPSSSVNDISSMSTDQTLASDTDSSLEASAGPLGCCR

SMILES | pIC50 (ERK2) | pIC50 [1] | pIC50 [2] | melting point | also measured
N#CC(c1ccnc(NCCO)n1)c1nc2ccccc2s1 (stereo not drawn) [Compound 23, 1,3-benzothiazol-2-yl {2-[(2-hydroxyethyl)amino]-4-pyrimidinyl}acetonitrile] | < 4.52 | 6.29 | 5.74 | – | pIC50 (preactivated p38): < 4.52
N#CC(c1ccnc(OCc2ccc(CN3CCOCC3)cc2)n1)c1nc2ccccc2s1 (stereo not drawn) [Compound 93, 1,3-benzothiazol-2-yl(2-{[4-(morpholin-4-ylmethyl)benzyl]oxy}pyrimidin-4-yl)acetonitrile] | – | – | – | – | inhibition at 10 µM [3]: > 50%
N#CC(c1ccnc(Cl)n1)c1nc2ccccc2s1 (stereo not drawn) [Compound 1, 1,3-benzothiazol-2-yl(2-chloro-4-pyrimidinyl)-acetonitrile] | < 4.52 | 6.54 | 6.30 | – | –
CNc1nccc(C(C#N)c2nc3ccccc3s2)n1 (stereo not drawn) [Compound 15, 1,3-benzothiazol-2-yl[2-(methylamino)-4-pyrimidinyl]acetonitrile] | < 4.52 | 6.02 | 5.64 | – | –
CN(C)CCCNc1nccc(C(C#N)c2nc3ccccc3s2)n1 (stereo not drawn) (as salt: TFA) [Compound 47, 1,3-benzothiazol-2-yl(2-{[3-(dimethylamino)propyl]amino}pyrimidin-4-yl)acetonitrile] | – | – | – | 204 to 205 °C | –
N#CC(c1ccnc(NCCc2ccccn2)n1)c1nc2ccccc2s1 (stereo not drawn) (as salt: TFA) [Compound 28, 1,3-benzothiazol-2-yl(2-{[2-(2-pyridinyl)ethyl]amino}-4-pyrimidinyl)acetonitrile] | – | – | – | 247 °C (dec.) | –
N#CC(c1ccnc(OCc2ccc(CN3CCCCC3)cc2)n1)c1nc2ccccc2s1 (stereo not drawn) [Compound 95, 1,3-benzothiazol-2-yl(2-{[4-(piperidin-1-ylmethyl)benzyl]oxy}pyrimidin-4-yl)acetonitrile] | – | – | – | – | inhibition at 10 µM [3]: > 50%
N#CC(c1ccnc(NCCc2c[nH]cn2)n1)c1nc2ccccc2s1 (stereo not drawn) [Compound 10, 1,3-benzothiazol-2-yl(2-{[2-(1H-imidazol-4-yl)ethyl]amino}-4-pyrimidinyl)acetonitrile] | < 4.52 | 7.15 | 6.68 | – | pIC50 (preactivated p38): < 4.52
N#CC(c1ccnc(NCCc2ccc(O)cc2)n1)c1nc2ccccc2s1 (stereo not drawn) [Compound 43, 1,3-benzothiazol-2-yl(2-{[2-(4-hydroxyphenyl)ethyl]amino}pyrimidin-4-yl)acetonitrile] | – | – | – | 258 to 261 °C | –
N#CC(c1ccnc(NCCc2ccccc2)n1)c1nc2ccccc2s1 (stereo not drawn) [Compound 27, 1,3-benzothiazol-2-yl {2-[(2-phenylethyl)amino]-4-pyrimidinyl}acetonitrile] | – | – | – | 256 °C (dec.) | –
CSc1nccc(C(C#N)c2nc3ccccc3s2)n1 (stereo not drawn) [Compound 4, 1,3-benzothiazol-2-yl[2-(methylsulfanyl)-4-pyrimidinyl]acetonitrile] | < 4.52 | 6.46 | 6.01 | – | –
Cn1cncc1CCNc1nccc(C(C#N)c2nc3ccccc3s2)n1 (stereo not drawn) (as salt: TFA) [Compound 49, 1,3-benzothiazol-2-yl(2-{[2-(1-methyl-1H-imidazol-5-yl)ethyl]amino}pyrimidin-4-yl)acetonitrile] | – | – | – | 219 to 220 °C | –
N#CC(c1ccnc(NCCN2CCCCC2)n1)c1nc2ccccc2s1 (stereo not drawn) (as salt: TFA) [Compound 48, 1,3-benzothiazol-2-yl {2-[(2-piperidin-1-ylethyl)amino]pyrimidin-4-yl}acetonitrile] | – | – | – | 228 to 230 °C | –
N#CC(c1ccnc(N2CCCC2)n1)c1nc2ccccc2s1 (stereo not drawn) [Compound 26, 1,3-benzothiazol-2-yl[2-(1-pyrrolidinyl)-4-pyrimidinyl]acetonitrile] | – | – | – | 270 to 272 °C | –
COc1ccc(Oc2nccc(C(C#N)c3nc4ccccc4s3)n2)cc1 (stereo not drawn) [Compound 96, 1,3-benzothiazol-2-yl[2-(4-methoxyphenoxy)pyrimidin-4-yl]acetonitrile] | < 4.52 | 7.52 | 6.52 | – | pIC50 (preactivated p38): < 4.52
N#CC(c1ccnc(NCc2ccccn2)n1)c1nc2ccccc2s1 (stereo not drawn) (as salt: TFA) [Compound 29, 1,3-benzothiazol-2-yl{2-[(2-pyridinylmethyl)amino]-4-pyrimidinyl}acetonitrile] | – | – | – | 250 °C (dec.) | –
N#CC(c1ccnc(OCc2ccccc2)n1)c1nc2ccccc2s1 (stereo not drawn) [Compound 80, 1,3-benzothiazol-2-yl[2-(benzyloxy)pyrimidin-4-yl]acetonitrile] | < 4.52 | 7.22 | 6.60 | – | pIC50 (preactivated p38): < 4.52
COc1nccc(C(C#N)c2nc3ccccc3s2)n1 (stereo not drawn) [Compound 102, 1,3-benzothiazol-2-yl(2-methoxy-4-pyrimidinyl)-acetonitrile] | < 4.52 | 6.98 | 6.35 | – | –
N#CC(c1ccnc(NCCc2cccnc2)n1)c1nc2ccccc2s1 (stereo not drawn) [Compound 33, 1,3-benzothiazol-2-yl(2-{[2-(3-pyridinyl)ethyl]amino}-4-pyrimidinyl)acetonitrile] | – | – | – | – | inhibition at 10 µM [3]: > 50%
